Results from a melting point compilation (Tetko et al.; mined from patent text by program, amines drawn as free bases though some values may be those of a salt).

| SMILES | melting point |
| --- | --- |
| CCCCCCCC(c1cc(C)ccc1O)c1cc(C)ccc1O | 108 to 109 °C |
| Nc1nc(S(=O)(=O)Cl)nn1C(=O)Oc1ccccc1 | 164 °C |
| CSc1sc(-c2ccn(C)n2)c2c1C(=O)C(=CO)C(C)(C)C2 | 145 to 148 °C |
| O=C(Cc1ccccc1Nc1c(Cl)cccc1Cl)OCI | 66 °C |
| CCOC(=O)C(C(=O)CC(C)C)C1c2ccccc2C(=O)N1c1ccc2ccc(Cl)nc2n1 (configuration not stated) | 145 °C |
| CCC(C(=O)O)N(C(=O)c1cn(-c2cc(C(F)(F)F)ccc2Cl)nc1C)c1ccc(OCC(C)(C)C)c(C#N)c1 (configuration not stated) | 134 to 135 °C |
| Clc1ccc(Nc2cncc(-n3ncc4ccccc43)n2)cc1 | 204 to 207 °C |
| COc1ccc(-c2cnc(NC(=O)Cc3ccccc3)c(Cc3ccccc3)n2)cc1 | 198 to 202 °C |
| CCOc1cccc(-c2ccc(C3=CCN(S(=O)(=O)CC(=O)OC)CC3)cc2)c1 | 120 to 122 °C |
| CC(CNCc1ccccc1O)NCc1ccccc1O (configuration not stated) | 57 to 58 °C |
| CC(O)CCCCCc1ccc(-c2ccccc2)cc1 (configuration not stated) | 47 to 48 °C |
| COC(=O)c1c(-c2ccccc2Cl)c2cc(C)c(C)cc2[nH]c1=O | 288 to 289 °C |
| CNC(=O)c1ccc(F)c2c1CC(N(CCc1c[nH]c3ccc(F)cc13)C1CCC1)CO2 (configuration not stated) | 131 °C |
| Nc1cc(Cl)ccc1C(=O)c1cccc(O)c1 | 137 to 138 °C |
| O=[N+]([O-])c1cc2c(cc1C=Cc1ccccn1)OCO2 | 167 to 170 °C |
| CS(=O)(=O)c1ccc(-c2sc(Nc3cc(Cl)cc(Cl)c3)nc2-c2ccc(F)cc2)cc1 | 287 to 288 °C |
| COc1ccc(COc2ccc(CC(=O)O)cc2Cl)cc1 | 150 to 152 °C |
| COc1cc2nc(-c3ccccc3)nc(N3CCN(C(=O)Nc4ccc([N+](=O)[O-])cc4)CC3)c2cc1OC | 156 to 157 °C |
| O=C1c2ccccc2-c2c1c(Cl)nc1ccc(Br)cc21 | 304 to 306 °C |
| Nc1ncnc2c1ncn2Cc1oc2ccccc2c(=O)c1-c1ccccc1F | 202 to 205 °C |
| CC(C)Oc1cc(-n2nc(C(F)(F)F)[nH]c2=O)c(Cl)cc1Cl | 160 to 161 °C |
| COCCNC(N)=Nc1nc(-c2cccc(CNC(=O)CN)c2)cs1 | 66 to 67 °C |
| O=S(=O)(Cc1n[nH]c(-c2cccs2)n1)c1ccccc1 | 191 to 193 °C |
| On1cc(-c2ccccc2)[nH]c1=S | 196 °C |
| CCOC(=O)Cc1c2cc(F)ccc2n2c(-c3ccc(SC)cc3)nccc12 | 59 to 62 °C |
| COc1cccc2ccc(C(F)(F)F)nc12 | 88 to 89 °C |

| SMILES | melting point |
| --- | --- |
| CS(=O)(=O)c1ccc(-c2cc(CO[N+](=O)[O-])nn2Cc2ccccc2)cc1 | 94 to 96 °C |
| CC1=C(C(=O)OCCO)C(c2cccc([N+](=O)[O-])c2)C2=C(CCCS2(=O)=O)N1 (configuration not stated) | 233 to 235 °C |
| CNC(=O)Oc1cccc(NC(=O)C=C(C)OC)c1 | 175 °C |
| COC[C@H](C)Oc1cc(O)cc(C(=O)O)c1 | 95 °C |
| CN1CCC(O)(c2cc(F)cc(F)c2)C1 (configuration not stated) | 150 °C |
| CC1(C)C=Cc2ccc(F)c(C#N)c2O1 | 99 to 101 °C |
| Cc1ccc(CC2CCN(C(=O)NC(=O)c3ccc(OCc4ccccc4)cc3)CC2)cc1 | 204 to 208 °C |
| O=C(Nc1cc(Cl)cc(Cl)c1)c1ccccc1O | 218 to 219 °C |
| COC(=O)CCc1cnc(C)s1 | 115 °C |
| COC(=O)Cc1ccc(OCCNC(=O)C2Cc3ccccc3N2S(=O)(=O)c2ccc(-c3cc(C)ccc3C)cc2)cc1 (configuration not stated) | 56 to 59 °C |
| CC(Cl)(Cl)C(NC(=O)c1ccc(Cl)cc1)NC(=NC#N)Nc1ccc(C(F)(F)F)nc1 (configuration not stated) | 204 to 205 °C |
| COCCc1nc2c(N)nc(C)c(C)c2n1NC1CCOCC1 | 110 to 120 °C |
| OCC#CCCCCCCC#Cc1ccc(O)c(O)c1 | 81 to 83 °C |
| Brc1ccc2c(ccc3cc(Br)ccc32)c1 | 163 to 166 °C |
| O=C(NC1CCCCC1)N(Cc1ccc(Cl)cc1)C1CCCC1 | 99 to 101 °C |
| CCOc1ccc(C[N+](=O)[O-])c(C=CC[N+](=O)[O-])c1OCc1ccccc1 | 89 to 90 °C |
| CN(C)c1ccc(NC(=O)N(CC2CCCC(CN(C(=O)Nc3ccc(N(C)C)cc3)C3CC4CCC3C4)C2)C2CC3CCC2C3)cc1 (configuration not stated) | 110 to 115 °C |
| CC(=O)N1CCC1CC(=O)O (configuration not stated) | 148 to 150 °C |
| O=C(Nc1cnc(N2CCCC2)cc1C(F)(F)F)c1cc2cc(C(F)(F)F)cnc2n1Cc1cccc(F)c1 | 207 to 208 °C |
| COc1ccc2c(c1)OCC(/C=C/C=C/C=C/C(=O)O)=C2 | 238 to 240 °C |
| CCOc1ccc(F)c(N2Cc3cnc(NCCCCN(CC)CC)nc3N(C3CCCC3)C2=O)c1F | 129 to 130 °C |
| C[C@@H](Nc1ncnc2[nH]c(-c3cccc([N+](=O)[O-])c3)cc12)c1ccccc1 | > 250 °C |
| CC(C)[C@@H]1O[C@](C#CC2CC2)(C(F)(F)F)c2cc(Cl)ccc2NC1=O (relative stereo) | 167 °C |
| CCc1ncc(CO)c(NCc2ccc(-c3ccccc3-c3nnnn3C(c3ccccc3)(c3ccccc3)c3ccccc3)cc2)n1 | 118 to 120 °C |
| CCNC(=O)[C@H](C)C[C@H](O)[C@H](CC1CCCCC1)NC(=O)OC(C)(C)C | 126 to 127 °C |
| CCn1nc(-c2nc(C#N)c(N)nc2-c2ccccc2)ccc1=O | > 250 °C |

| SMILES | melting point |
| --- | --- |
| CCC1(O)CC(=O)OCc2c1cc1n(c2=O)Cc2c-1nc1cc(F)c(F)cc1c2-c1ccccc1 (configuration not stated) | > 250 °C |
| Cc1cc2c3c(c1)C1(CC(=O)NC1=O)C(=O)N3CCC2 (configuration not stated) | 165 to 167 °C |
| COc1nc2c(Cl)c(Cl)c(Cl)c(Cl)c2n1COCCO | 139 °C |
| N#CCNC(=O)c1ccnc(F)c1 | 124 to 125 °C |
| O=C(O)COc1cccc(-c2ccc(Cl)c(C(=O)NCC34CC5CC(CC(C5)C3)C4)c2)c1 | 99 to 101 °C |
| O=C(O)c1cnc(Oc2ccccc2)s1 | 172 to 173 °C |
| CCOC(=O)c1c(CN(CC)CC)nc2sc3c(c2c1-c1ccc(OC)c(OC)c1)CCN(S(C)(=O)=O)C3 | 147 to 148 °C |
| OC(c1ccccc1)C1CCN(CCCN(c2ccccc2)c2ccccc2)CC1 (configuration not stated) | 129 to 130 °C |
| O=C(O)CCCCn1ccnc1 | 157 to 158 °C |
| COC(=O)c1ccc2nc3cc(C)sc3c(=O)n2c1 | 215 to 216 °C |
| Cc1ccc(C(O)CCCO)cc1 (configuration not stated) | 43 to 47 °C |
| COC(=O)C=C(C)c1ccc(-c2ccc(F)cc2F)cc1 | 90 to 92 °C |
| Cn1c(C(F)(F)F)nn(-c2cc(O)c(C#N)cc2F)c1=O | 208 °C |
| CC1CCC(C(C)C)C(OC(=O)N2CC(=O)N(C)c3ccc(Cl)cc3C2c2ccccc2)C1 (configuration not stated) | 144 °C |
| O=C(O)CC(CC(=O)Nc1cc(OCC=C(Cl)Cl)c(Cl)cc1F)C(F)(F)F (configuration not stated) | 117 to 118 °C |
| COC(=O)CCSc1c(C(N)=O)sc2ccc(OC)cc12 | 142 to 144 °C |
| CCOC1=NC(OC)=NS(=O)(=O)N1C(C)C | 81 to 85 °C |
| CS(=O)(=O)c1cccnc1S(C)(=O)=O | 175 to 176 °C |
| O=c1cc(-c2ccc(Br)cc2)oc2ccccc12 | 177 to 179 °C |
| Fc1ccc(C2CSCC(=S)N2)cc1 (configuration not stated) | 107 to 108 °C |
| CC1(c2cccs2)Cc2cc(OCC(=O)O)c(Cl)c(Cl)c2C1=O (configuration not stated) | 161 to 162 °C |
| CSc1ccc([N+](=O)[O-])cn1 | 111 to 112 °C |
| C=CCC(O)(C(=O)c1ccc(C)cc1)c1ccc(C)cc1 (configuration not stated) | 38 to 40 °C |
| CN1C(=O)C2C3CCC(CC3)C2(c2ccc(Cl)c(Cl)c2)C1=O (configuration not stated) | 126 to 134 °C |
| CCOC(=O)CS(=O)(=O)Nc1c(C(C)C)cccc1C(C)C | 114 to 116 °C |
| COCCn1c(=O)[nH]c2ncc(-c3ccc(O)cc3)nc21 | 236 to 237 °C |

| SMILES | melting point |
| --- | --- |
| FC(F)(F)Oc1ccc(C=CC(C=Cc2ccc(OC(F)(F)F)cc2)=NNC2=NCCCCN2)cc1 | 184 to 186 °C |
| CCOC(=O)c1c(Nc2cc(F)ccc2N)sc2ccccc12 | 141 to 142 °C |
| CC(=O)Nc1cc(CO)ccn1 | 145 °C |
| CCNc1nc(Nc2ccccc2)ncc1C=CC#N | 244 to 246 °C |
| O=C(OCC1c2ccccc2-c2ccccc21)N1Cc2cccn2Cc2ccccc21 | 141 to 142 °C |
| Oc1cc(Cl)c(OCc2ccccc2Cl)c(Cl)c1 | 108 °C |
| CN(C)CC(=O)N1c2ccccc2N(C)C(=O)c2cnc(-c3ccccc3)nc21 | 207 to 208 °C |
| Cc1nc2cccc(N)c2s1 | 100 to 101 °C |
| CC(C)(Br)C1CC(=O)OC1OCc1cccc(Oc2ccccc2)c1 (configuration not stated) | 60 °C |
| CC(=O)Nc1cc2c(cc1[N+](=O)[O-])[C@@H](N1CCCC1=O)[C@H](O)C(C)(C)O2 (relative stereo) | 266 to 268 °C |
| CC(C)(C)OC(=O)N1CCC(C#N)(CCl)CC1 | 114 to 116 °C |
| O=C1NC(=O)c2cc(Nc3ccccc3I)c(Nc3ccccc3I)cc21 | 108 to 110 °C |
| CC(COc1ccc(C(=O)O)c(O)c1)C[Si](C)(O[Si](C)(C)C)O[Si](C)(C)C (configuration not stated) | 117 to 118 °C |
| COc1ccc2c(C(C)=O)noc2c1 | 64 to 67 °C |
| OC(c1ccccn1)c1cc(C(F)(F)F)nc2c(C(F)(F)F)cccc12 (configuration not stated) | 133 to 135 °C |
| CCOC(=O)c1cn(C2CC2)c2cc(-c3cc(C(F)(F)F)nc(C(F)(F)F)c3)c(F)cc2c1=O | 239 to 241 °C |
| O=C1CN(c2ccc(Cc3ccccc3)cc2)C(=S)N1c1ccc([N+](=O)[O-])cc1 | 209 °C |
| COc1cc2ncnc(N3CCC(C(C)(O)CN4CCC(C)NS4(=O)=O)CC3)c2cc1OC (configuration not stated) | 186 to 188 °C |
| CC(C)(C)c1ccc2c(c1)CCC(CN1CCCCC1)C2=O (configuration not stated) | 47 to 49 °C |
| O=C1CC2(CC=CC2)CC(=O)N1 | 150 to 153 °C |
| CCCCCCCCCCCC(=O)OCn1cc(F)c(=O)[nH]c1=O | 114 °C |
| Cc1cc(Cl)nnc1NN | 191 to 192 °C |
| O=C(O)[C@H]1CC(=O)N(c2ccc(OCc3cccc(F)c3)cc2)C1 | 157 °C |
| Cn1c(=O)n(Cc2ccccc2)c(=O)c2cc(C(=O)CCc3ccccc3)ccc21 | 155 °C |
